SMILES strings stand for the structures.

The test system of series [1] is mice. The series is described as follows: Conditioned place preference (CPP). To be noted: selegiline or MPPE 2.5 or 5.0 mg/kg i.p., MA 0.5 or 1.0 mg/kg i.p.; vs. saline. The format is in vivo. Here is the method: For conditioned place preference (CPP) test, mice received an i.p. injection of saline just before entering the […] compartment. MA (0.5 or 1.0 mg/kg, i.p.), selegiline (2.5 or 5.0 mg/kg, i.p.), and MPPE (2.5 or 5.0 mg/kg, i.p.) dissolved in saline was administered immediately before the mice were placed in the white compartment. On day 1, the mice were pre-exposed to the test apparatus for 15 minutes. The guillotine style doors were raised and mice were allowed to move freely between the two compartments. On day 2, the time each mouse spent in each compartment was recorded for 15 minutes. On days 3, 5, 7, 9, 11, and 13, the mice were injected with each drug before being confined to the white compartment, the non-preferred side, for 40 minutes. On day 14, the guillotine doors were raised. The mice were initially placed in the tunnel and the time spent by the mice in the two compartments was recorded for 15 minutes. The scores were calculated from the differences in the time spent in the white compartment in the testing and pre-testing phases. Data were analyzed between 09:00 and 17:00 hours.

For series [2], the system named is mice. The series is described as follows: Locomotor activity after repeated treatment with drug alone. It counts as in vivo. As to conditions: repeated treatment i.p./day×7, selegiline or MPPE 2.5 or 5.0 mg/kg, MA 0.5 or 1.0 mg/kg. Here is the method:
Selegiline or […] was injected (2.5 or 5 mg/kg, i.p.) once a day for 7 consecutive days. Methamphetamine, a positive control, was also administered (0.5 or 1 mg/kg, i.p.) once a day for 7 days.
Locomotor activity measured for 30 min one day after the last MPTP administration using an automated video-tracking system (Noldus Information Technology, Wagenin, The Netherlands). Eight test boxes (40×40×30 cm high) were operated simultaneously by an IBM computer. Animals were studied individually during locomotion in each test box, where they were adapted for 5 min before starting the experiment. […] The distance traveled in cm by the animals in horizontal locomotor activity was analyzed. Data were collected and analyzed between 09:00 and 17:00 h (Kim et al., 2001).

With `CN[C@@H](C)Cc1ccccc1` [MA, methamphetamine], the “conditioned place preference (CPP)” value in the series on mice [1] is reported as “significantly increased compared with saline”. Also, the locomotor patterns entry in the series with mice [2] is recorded as “typical circling locomotor patterns”. For the same molecule, the locomotor activities result with mice [2] (vs. saline) is reported as “significantly increased”.
